Laboratory results published in ChEMBL document CHEMBL5046279, “Discovery of a Partial Glucokinase Activator Clinical Candidate: Diethyl ((3-(3-((5-(Azetidine-1-carbonyl)pyrazin-2-yl)oxy)-5-isopropoxybenzamido)-1H-pyrazol-1-yl)methyl)phosphonate (BMS-820132)” (J Med Chem, 2022).
≈ marks a conversion by molar mass, not a printed value.

Experiments:
[1] = molecular target: T1, Hexokinase-4 (Homo sapiens, UniProt P35557); experiment: Activation of recombinant full length human liver glucokinase expressed in Escherichia coli incubated for 10 mins by plate reader analysis
T1 sequence (P35557 whole entry): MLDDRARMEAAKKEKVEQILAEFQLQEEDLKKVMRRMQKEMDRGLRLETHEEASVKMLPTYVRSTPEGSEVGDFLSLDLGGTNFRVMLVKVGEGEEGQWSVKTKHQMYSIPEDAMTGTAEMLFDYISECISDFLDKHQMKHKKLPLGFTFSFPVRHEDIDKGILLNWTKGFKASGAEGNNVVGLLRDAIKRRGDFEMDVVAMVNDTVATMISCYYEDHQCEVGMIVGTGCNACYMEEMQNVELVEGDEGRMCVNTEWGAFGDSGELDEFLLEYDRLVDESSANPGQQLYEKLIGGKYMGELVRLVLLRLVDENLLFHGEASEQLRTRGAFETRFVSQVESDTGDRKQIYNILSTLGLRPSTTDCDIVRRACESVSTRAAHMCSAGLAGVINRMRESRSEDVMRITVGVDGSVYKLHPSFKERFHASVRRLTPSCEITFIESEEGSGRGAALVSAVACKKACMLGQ

[2] = Permeability of compound at pH 7.4 by PAMPA assay; type: ADME; settings: read-out: permeability
[3] = molecular target: Voltage-gated inwardly rectifying potassium channel KCNH2 (Homo sapiens, UniProt Q12809); experiment: Inhibition of hERG by patch clamp method; type: toxicity
[4] = Microsomal stability in human liver microsomes assessed as parent compound remaining at 0.5 uM measured after 10 mins in presence of NADPH; type: ADME, Microsome; settings: read-out: Stability
[5] = Aqueous solubility of the compound at pH 6.5 using amorphous form of sample; type: physicochemical; settings: aqueous solution
[6] = molecular target: T1, Hexokinase-4; experiment: Displacement of fluorescent labeled derivative from recombinant human hepatic glucokinase incubated for 30 mins in presence of 12 mM glucose by fluorescent polarization assay
[7] = molecular target: T2, Hexokinase-4 (Mus musculus, UniProt P52792); experiment: Activation of recombinant mouse full length liver glucokinase expressed in Escherichia coli incubated for 10 mins in presence of 12 mM glucose by plate reader analysis
T2 sequence (P52792 whole entry): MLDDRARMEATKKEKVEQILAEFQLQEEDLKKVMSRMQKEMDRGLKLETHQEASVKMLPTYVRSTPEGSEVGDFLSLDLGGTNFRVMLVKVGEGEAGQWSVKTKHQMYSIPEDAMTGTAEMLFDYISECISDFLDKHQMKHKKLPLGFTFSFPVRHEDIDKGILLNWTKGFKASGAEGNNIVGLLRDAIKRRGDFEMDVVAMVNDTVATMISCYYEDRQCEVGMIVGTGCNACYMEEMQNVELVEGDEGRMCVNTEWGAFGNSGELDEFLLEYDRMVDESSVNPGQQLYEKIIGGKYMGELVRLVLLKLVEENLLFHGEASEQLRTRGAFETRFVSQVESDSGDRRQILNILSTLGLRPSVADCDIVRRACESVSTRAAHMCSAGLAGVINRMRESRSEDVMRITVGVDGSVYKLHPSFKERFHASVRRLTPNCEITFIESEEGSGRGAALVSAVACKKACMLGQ

[8] = molecular target: T1, Hexokinase-4; experiment: Activation of recombinant human full length liver glucokinase expressed in Escherichia coli incubated for 10 mins in presence of 5 mM glucose by plate reader analysis
[9] = molecular target: hERG (KCNH2) (Homo sapiens, UniProt Q12809); experiment: Inhibition of hERG at 10 uM by patch clamp method relative to control; type: toxicity
[10] = molecular target: T1, Hexokinase-4; experiment: Activation of recombinant human full length liver glucokinase expressed in Escherichia coli incubated for 10 mins in presence of 2 mM glucose by plate reader analysis

Voltage-gated inwardly rectifying potassium channel KCNH2, sequence (Q12809 whole entry): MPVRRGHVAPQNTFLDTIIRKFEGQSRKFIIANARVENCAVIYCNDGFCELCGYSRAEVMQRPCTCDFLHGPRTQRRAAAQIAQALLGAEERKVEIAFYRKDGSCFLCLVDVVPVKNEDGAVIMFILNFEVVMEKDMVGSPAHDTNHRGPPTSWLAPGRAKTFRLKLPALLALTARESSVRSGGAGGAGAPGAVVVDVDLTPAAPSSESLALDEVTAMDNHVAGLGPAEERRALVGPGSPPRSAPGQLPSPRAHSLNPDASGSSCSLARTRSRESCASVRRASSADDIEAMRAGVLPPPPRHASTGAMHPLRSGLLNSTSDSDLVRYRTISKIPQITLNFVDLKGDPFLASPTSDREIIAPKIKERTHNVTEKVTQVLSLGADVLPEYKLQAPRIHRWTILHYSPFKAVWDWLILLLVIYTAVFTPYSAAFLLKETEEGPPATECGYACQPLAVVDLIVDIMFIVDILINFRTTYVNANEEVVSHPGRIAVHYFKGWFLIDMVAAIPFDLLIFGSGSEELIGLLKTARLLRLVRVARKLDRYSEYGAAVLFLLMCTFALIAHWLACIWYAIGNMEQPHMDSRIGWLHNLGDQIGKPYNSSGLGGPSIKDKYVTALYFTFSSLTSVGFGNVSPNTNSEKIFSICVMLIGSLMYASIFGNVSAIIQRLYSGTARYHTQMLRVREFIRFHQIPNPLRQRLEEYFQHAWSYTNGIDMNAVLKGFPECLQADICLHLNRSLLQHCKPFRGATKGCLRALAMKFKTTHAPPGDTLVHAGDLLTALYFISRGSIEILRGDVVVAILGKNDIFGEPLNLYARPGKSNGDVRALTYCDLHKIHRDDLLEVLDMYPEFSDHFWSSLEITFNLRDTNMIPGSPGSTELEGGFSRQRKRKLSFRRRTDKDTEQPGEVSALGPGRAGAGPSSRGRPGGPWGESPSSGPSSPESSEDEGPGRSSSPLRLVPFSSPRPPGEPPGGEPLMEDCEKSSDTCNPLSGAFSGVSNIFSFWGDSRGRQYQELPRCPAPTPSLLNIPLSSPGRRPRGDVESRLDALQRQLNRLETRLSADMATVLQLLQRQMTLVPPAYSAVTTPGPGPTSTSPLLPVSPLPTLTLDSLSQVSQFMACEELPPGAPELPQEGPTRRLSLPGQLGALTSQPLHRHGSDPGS
hERG (KCNH2), sequence (Q12809 whole entry): as above

| Compound | EC50 [1] [nM] | Papp [2] [×10⁻⁶ cm/s] | IC50 [3] [µM] | remaining at 10 min, 0.5 µM [4] [%] | solubility [5] [µg/mL] | IC50 [6] [nM] | EC50 [7] [nM] | EC50 [8] [nM] | inhibition at 10 µM [9] [%] | EC50 [10] [nM] |
| --- | --- | --- | --- | --- | --- | --- | --- | --- | --- | --- |
| CCOP(=O)(Cn1ccc(NC(=O)c2cc(Oc3ccc(S(=O)(=O)C(C)C)cc3)cc(OC(C)C)c2)n1)OCC | 32 | 53.6 | 30 | 77 | 3 (≈ 5.05 µM) | – | – | – | – | – |
| CCOP(=O)(Cn1ccc(NC(=O)c2cc(Oc3cnc(S(C)(=O)=O)nc3)cc(OC(C)C)c2)n1)OCC | 234 | 31.4 | > 80 | 100 | 471 (≈ 830 µM) | – | – | – | – | – |
| CCOP(=O)(Cn1ccc(NC(=O)c2cc(Oc3ccc(S(C)(=O)=O)cc3)cc(O[C@@H](C)CF)c2)n1)OCC | 87 | 56 | > 80 | 78 | 1 (≈ 1.71 µM) | – | – | – | – | – |
| CCOP(=O)(Cn1ccc(NC(=O)c2cc(Oc3ccc(C(=O)N4CCC4)nn3)cc(OC(C)C)c2)n1)OCC | 1240 | – | > 80 | 99 | 409 (≈ 714 µM) | – | – | – | – | – |
| CCOP(=O)(Cn1ccc(NC(=O)c2cc(Oc3ccc(S(C)(=O)=O)nc3)cc(OC(C)C)c2)n1)OCC | 24 | 47.1 | > 80 | 96 | – | – | – | – | – | – |
| CCOP(=O)(Cc1cnc(NC(=O)c2cc(Oc3ccc(S(C)(=O)=O)cc3)cc(O[C@@H](C)COC)c2)cn1)OCC | 164 | – | > 80 | 54 | 161 (≈ 265 µM) | – | – | – | – | – |
| COC[C@H](C)Oc1cc(Oc2ccc(S(C)(=O)=O)cc2)cc(C(=O)Nc2ccn(CP(C)(C)=O)n2)c1 | 679 | – | > 80 | 96 | 96 (≈ 179 µM) | – | – | – | – | – |
| CCOP(=O)(Cn1ccc(NC(=O)c2cc(Oc3cnc(C(=O)N4CCC4)nc3)cc(OC(C)C)c2)n1)OCC | 61 | – | > 80 | 99 | 229 (≈ 400 µM) | – | – | – | – | – |
| CCOP(=O)(Cn1ccc(NC(=O)c2cc(Oc3ccc(S(C)(=O)=O)nn3)cc(OC(C)C)c2)n1)OCC | 530 | 25.5 | > 80 | 100 | 3830 (≈ 6750 µM) | – | – | – | – | – |
| CCOP(=O)(Cc1csc(NC(=O)c2cc(Oc3ccc(S(C)(=O)=O)cc3)cc(O[C@@H](C)COC)c2)n1)OCC | 38 | – | 50 | 4 | 16 (≈ 26.1 µM) | 122 | 42 | 64 | 60 | 185 |
| CCOP(=O)(Cn1ccc(NC(=O)c2cc(Oc3ccc(C(=O)N4CCC4)nc3)cc(OC(C)C)c2)n1)OCC | 25 | – | > 80 | 66 | 39 (≈ 68.2 µM) | – | – | – | – | – |
| CCOP(=O)(Cn1ccc(NC(=O)c2cc(Oc3cnc(C(=O)NC)cn3)cc(OC(C)C)c2)n1)OCC | 193 | – | > 80 | 98 | – | – | – | – | – | – |
| CCO[P@](C)(=O)Cn1ccc(NC(=O)c2cc(Oc3ccc(S(C)(=O)=O)cc3)cc(O[C@@H](C)COC)c2)n1 | 169 | – | > 80 | 81 | 547 (≈ 967 µM) | – | – | – | – | – |
| CCOP(=O)(Cn1ncc(NC(=O)c2cc(Oc3ccc(S(C)(=O)=O)cc3)cc(O[C@@H](C)COC)c2)n1)OCC | 49 | – | – | 33 | 5 (≈ 8.38 µM) | – | – | – | – | – |
| CCOP(=O)(Cn1ccc(NC(=O)c2cc(Oc3ccc(S(C)(=O)=O)cc3)cc(OC(C)C)c2)n1)OCC | 48 | 50.1 | > 80 | 88 | 1 (≈ 1.77 µM) | – | – | – | – | – |
| CCOP(=O)(Cn1ccc(NC(=O)c2cc(Oc3ccc(S(C)(=O)=O)cc3)cc(O[C@@H](C)CO)c2)n1)OCC | 79 | 0.7 | > 80 | 90 | 7 (≈ 12 µM) | – | – | – | – | – |
| CCOP(=O)(Cn1ccc(NC(=O)c2cc(Oc3cnc(S(C)(=O)=O)cn3)cc(OC(C)C)c2)n1)OCC | 159 | 44.5 | > 80 | 91 | – | – | – | – | – | – |
| CCOP(=O)(Cn1ccc(NC(=O)c2cc(Oc3ccc(C(=O)N4CCC4)cn3)cc(OC(C)C)c2)n1)OCC | 188 | – | > 80 | 99 | 298 (≈ 521 µM) | – | – | – | – | – |
| CCOP(=O)(Cn1ccc(NC(=O)c2cc(Oc3ccc(S(=O)(=O)CC)cc3)cc(OC(C)C)c2)n1)OCC | 28 | 53.4 | – | 94 | – | – | – | – | – | – |
| CCOP(=O)(Cn1ccc(NC(=O)c2cc(Oc3cnc(C(N)=O)cn3)cc(OC(C)C)c2)n1)OCC | 656 | – | > 80 | 100 | – | – | – | – | – | – |
| CCOP(=O)(Cn1ccc(NC(=O)c2cc(Oc3ccc(S(C)(=O)=O)cc3)cc(OC(CF)CF)c2)n1)OCC | 76 | 38.2 | 44 | 93 | 10 (≈ 16.6 µM) | – | – | – | – | – |
| CCOP(=O)(Cn1ccc(NC(=O)c2cc(Oc3cnc(C(=O)N(C)C)cn3)cc(OC(C)C)c2)n1)OCC | 148 | – | > 80 | 99 | 980 (≈ 1750 µM) | – | – | – | – | – |
| CCOP(=O)(Cn1ccc(NC(=O)c2cc(Oc3ccc(S(C)(=O)=O)cc3)cc(O[C@@H](CC)CO)c2)n1)OCC | 98 | 8.4 | > 80 | 82 | – | – | – | – | – | – |
| CCOP(=O)(Cn1ccc(NC(=O)c2cc(Oc3ccc(S(=O)(=O)N4CCC4)cc3)cc(OC(C)C)c2)n1)OCC | 67 | 51.6 | 33 | 46 | 2 (≈ 3.3 µM) | – | – | – | – | – |
| CCOP(=O)(Cn1ccc(NC(=O)c2cc(Oc3ccc(S(C)(=O)=O)cc3)cc(O[C@@H](C)COC)c2)n1)OCC | 75 | – | > 80 | 11 | 240 (≈ 403 µM) | – | – | – | – | – |
